What is called pIC50 is the IC50 on a negative log10 scale, so that one unit is a factor of ten.

Molecules are shown by their SMILES. pIC50: −log10 of the molar value.

This assay deals with GyrB ATPase activity (E. coli GyrA, E. coli GyrB) (Escherichia coli, UniProt P0AES6). The assay is described as follows: GyrB ATPase inhibition activity assay (ammonium molybdate/malachite green phosphate detection). In kind it is biochemical. Particulars: figure quoted may be an average of two or more results. The procedure:
Compounds may be tested for inhibition of GyrB ATPase activity using an ammonium molybdate/malachite green-based phosphate detection assay (Lanzetta, P. A., L. J. Alvarez, P. S. Reinach, and O. A. Candia, 1979, 100: 95-97). Assays can be performed in multiwell plates in 100 μl reactions containing: 50 mM HEPES buffer pH 7.5, 75 mM ammonium acetate, 5.5 mM magnesium chloride, 0.5 mM ethylenediaminetetraacetic acid, 5% glycerol, 1 mM 1,4-Dithio-DL-threitol, 200 nM bovine serum albumin, 5 μg/ml sheared salmon sperm DNA, 2.5 nM E. coli GyrA, 2.5 nM E. coli GyrB, 250 μM ATP, and compound in dimethylsulfoxide. Reactions can be quenched with 150 μl of ammonium molybdate/malachite green detection reagent containing 1.2 mM malachite green hydrochloride, 8.5 mM ammonium molybdate tetrahydrate, and 1 M hydrochloric acid.
Compounds of the Examples could be expected to have IC50 values of <200 μg/ml in one or both assays described herein above. For Example the following results were obtained in a GyrB ATPase inhibition activity assay substantially similar to the above wherein the figure quoted may be an average of two or more results
`Cc1[nH]c(C(=O)N[C@@H]2CCN(c3ncc(C(=O)O)s3)C[C@@H]2n2cc(Cl)nn2)c(Cl)c1Cl` [Example 107] gave a pIC50 above 8.01.

As for `Cc1[nH]c(C(=O)N[C@H]2CCN(c3ncc(C(=O)O)s3)C[C@H]2N)c(Cl)c1Cl` (racemic) [Example 68, cis(±)2-(3-Amino-4-{[(3,4-dichloro-5-methyl-1H-pyrrol-2-yl)carbonyl]amino}piperidin-1-yl)-1,3-thiazole-5-carboxylic acid], the pIC50 is 6.54.

On to `COC[C@H](C)NC(=O)c1nc(N2CC[C@H](NC(=O)c3[nH]c(C)c(Cl)c3Cl)[C@H](n3cncn3)C2)sc1C(=O)O` (racemic) [Example 50, cis(±)2-[4-{[(3,4-Dichloro-5-methyl-1H-pyrrol-2-yl)carbonyl]amino}-3-(1H-1,2,4-triazol-1-yl)piperidin-1-yl]-4-({[(1S)-2-methoxy-1-methylethyl]amino}carbonyl)-1,3-thiazole-5-carboxylic acid], for which the negative-log IC50 (pIC50) was above 8.01.

Compound `COC(=O)c1cnc(N2CC[C@H](NC(=O)c3[nH]c(C)c(Cl)c3Cl)[C@H](N=[N+]=[N-])C2)s1` (racemic) [Example 65, cis(±)Methyl 2-(3-azido-4-{[(3,4-dichloro-5-methyl-1H-pyrrol-2-yl)carbonyl]amino}piperidin-1-yl)-1,3-thiazole-5-carboxylate] had a negative logarithm of the IC50 (pIC50) above 8.01.

Take `Cc1[nH]c(C(=O)NC2CCN(c3ncc(C(=O)O)s3)CC23OCCO3)c(Cl)c1Cl` (centres unmarked) [Example 11, 2-(10-{[(3,4-Dichloro-5-methyl-1H-pyrrol-2-yl)carbonyl]amino}-1,4-dioxa-7-azaspiro[4.5]dec-7-yl)-1,3-thiazole-5-carboxylic acid]: the pIC50 is 7.75.

Consider `CO/N=C1\CN(c2nc(-c3ncc[nH]3)c(C(=O)O)s2)CCC1NC(=O)c1[nH]c(C)c(Cl)c1Cl` (centres unmarked) [Example 29, 2-[(3E)-4-{[(3,4-Dichloro-5-methyl-1H-pyrrol-2-yl)carbonyl]amino}-3-(methoxyimino)piperidin-1-yl]-4-(1H-imidazol-2-yl)-1,3-thiazole-5-carboxylic acid], for which the pIC50 was above 8.01.

For `COCn1ccnc1-c1nc(N2CCC(NC(=O)c3[nH]c(C)c(Cl)c3Cl)/C(=N/OC)C2)sc1C(=O)O` (centres unmarked) [Example 28, 2-[(3E)-4-{[(3,4-Dichloro-5-methyl-1H-pyrrol-2-yl)carbonyl]amino}-3-(methoxyimino)piperidin-1-yl]-4-[1-(methoxymethyl)-1H-imidazol-2-yl]-1,3-thiazole-5-carboxylic acid], the pIC50 was above 8.01.

In turn, `COCCn1ccnc1-c1nc(N2CCC(NC(=O)c3[nH]c(C)c(Cl)c3Cl)/C(=N/OC)C2)sc1C(=O)O` (centres unmarked) [Example 27, 2-[(3E)-4-{[(3,4-Dichloro-5-methyl-1H-pyrrol-2-yl)carbonyl]amino}-3-(methoxyimino)piperidin-1-yl]-4-[1-(2-methoxyethyl)-1H-imidazol-2-yl]-1,3-thiazole-5-carboxylic acid] had a pIC50 above 7.20.

For the compound `COC(=O)c1sc(N2CCC(NC(=O)c3[nH]c(C)c(Cl)c3Cl)C3(C2)OCCCO3)nc1C(C)=O` (centres unmarked) [Example 9, Methyl 4-acetyl-2-(11-{[(3,4-dichloro-5-methyl-1H-pyrrol-2-yl)carbonyl]amino}-1,5-dioxa-8-azaspiro[5.5]undec-8-yl)-1,3-thiazole-5-carboxylate], the pIC50 was 7.28.

`CCOC(=O)c1sc(N2CC[C@H](NC(=O)c3[nH]c(C)c(Cl)c3Cl)[C@H](n3cncn3)C2)nc1C(=O)O` (racemic) [Example 49, cis(±)2-[4-{[(3,4-Dichloro-5-methyl-1H-pyrrol-2-yl)carbonyl]amino}-3-(1H-1,2,4-triazol-1-yl)piperidin-1-yl]-5-(ethoxycarbonyl)-1,3-thiazole-4-carboxylic acid]: the pIC50 is above 8.01.

With `Cc1[nH]c(C(=O)N[C@H]2CCN(c3ncc(C(=O)O)s3)C[C@H]2n2ccnn2)c(Cl)c1Cl` (racemic) [Example 119, cis(±)2-[4-{[(3,4-Dichloro-5-methyl-1H-pyrrol-2-yl)carbonyl]amino}-3-(1H-1,2,3-triazol-1-yl)piperidin-1-yl]-1,3-thiazole-5-carboxylic acid], the pIC50 was 7.91.

Take `COCCNC(=O)c1nc(N2CC[C@@H](NC(=O)c3[nH]c(C)c(Cl)c3Cl)[C@@H](n3ccnn3)C2)sc1C(=O)O` [Example 100]: the pIC50 is above 8.01.

Take `Cc1[nH]c(C(=O)N[C@H]2CCN(c3ncc(C(=O)O)s3)C[C@H]2n2cncn2)c(Cl)c1Cl` (racemic) [Example 43, cis(±)2-[4-{[(3,4-Dichloro-5-methyl-1H-pyrrol-2-yl)carbonyl]amino}-3-(1H-1,2,4-triazol-1-yl)piperidin-1-yl]-1,3-thiazole-5-carboxylic acid]: the pIC50 was above 8.01.

`COCCNC(=O)c1nc(N2CCC(NC(=O)c3[nH]c(C)c(Cl)c3Cl)C3(C2)OCCO3)sc1C(=O)O` (centres unmarked) [Example 14, 2-(10-{[(3,4-Dichloro-5-methyl-1H-pyrrol-2-yl)carbonyl]amino}-1,4-dioxa-7-azaspiro[4.5]dec-7-yl)-4-{[(2-methoxyethyl)amino]carbonyl}-1,3-thiazole-5-carboxylic acid]: the pIC50 was above 8.01.

The compound `CO/N=C1\CN(c2ncc(C=O)s2)CCC1NC(=O)c1[nH]c(C)c(Cl)c1Cl` (centres unmarked) [Example 32, 3,4-Dichloro-N-[(3E)-1-(5-formyl-1,3-thiazol-2-yl)-3-(methoxyimino)piperidin-4-yl]-5-methyl-1H-pyrrole-2-carboxamide] had a pIC50 of 7.23.

Consider `COCCNC(=O)c1nc(N2CCC(NC(=O)c3[nH]c(C)c(Cl)c3Cl)/C(=N/OC)C2)sc1C(=O)O` (centres unmarked) [Example 23, 2-[(3E)-4-{[(3,4-Dichloro-5-methyl-1H-pyrrol-2-yl)carbonyl]amino}-3-(methoxyimino)piperidin-1-yl]-4-{[(2-methoxyethyl)amino]carbonyl}-1,3-thiazole-5-carboxylic acid], for which the negative-log IC50 (pIC50) is above 8.01.

`COC(=O)c1sc(N2CCC(NC(=O)c3[nH]c(C)c(Cl)c3Cl)C3(C2)OCCO3)nc1C(C)=O` (centres unmarked) [Example 2, Methyl 4-acetyl-2-(10-{[(3,4-dichloro-5-methyl-1H-pyrrol-2-yl)carbonyl]amino}-1,4-dioxa-7-azaspiro[4.5]dec-7-yl)-1,3-thiazole-5-carboxylate] had a pIC50 of 6.31.

Regarding `COCC(COC)NC(=O)c1nc(N2CC[C@@H](NC(=O)c3[nH]c(C)c(Cl)c3Cl)[C@@H](n3cc(Br)nn3)C2)sc1C(=O)O` [Example 113], the pIC50 was above 8.01.

Compound `CCOC(=O)c1sc(N2CCC(NC(=O)c3[nH]c(C)c(Cl)c3Cl)C3(C2)OCCCO3)nc1C(=O)NCCOC` (centres unmarked) [Example 7, Ethyl 2-(11-{[(3,4-dichloro-5-methyl-1H-pyrrol-2-yl)carbonyl]amino}-1,5-dioxa-8-azaspiro[5.5]undec-8-yl)-4-{[(2-methoxyethyl)amino]carbonyl}-1,3-thiazole-5-carboxylate] showed a pIC50 of 7.73.

With `COCC(COC)NC(=O)c1nc(N2CC[C@@H](NC(=O)c3[nH]c(C)c(Cl)c3Cl)[C@@H](n3cc(Cl)nn3)C2)sc1C(=O)O` [Example 109], the pIC50 is above 8.01.

As for `Cc1[nH]c(C(=O)N[C@H]2CCN(c3ncc(C(=O)O)s3)C[C@H]2N=[N+]=[N-])c(Cl)c1Cl` (racemic) [Example 66, cis(±)-2-(3-Azido-4-{[(3,4-dichloro-5-methyl-1H-pyrrol-2-yl)carbonyl]amino}piperidin-1-yl)-1,3-thiazole-5-carboxylic acid], the pIC50 is above 8.01.

Compound `Cc1[nH]c(C(=O)NC2CCN(c3ncc(C(=O)O)s3)CC23OCC(C)(C)CO3)c(Cl)c1Cl` (centres unmarked) [Example 57, 2-(11-{[(3,4-Dichloro-5-methyl-1H-pyrrol-2-yl)carbonyl]amino}-3,3-dimethyl-1,5-dioxa-8-azaspiro[5.5]undec-8-yl)-1,3-thiazole-5-carboxylic acid] gave a pIC50 above 8.01.

On to `COC(=O)c1cnc(N2CC[C@H](NC(=O)c3[nH]c(C)c(Cl)c3Cl)[C@H](n3ccnn3)C2)s1` (racemic) [Example 126, cis(±)Methyl 2-[4-{[(3,4-dichloro-5-methyl-1H-pyrrol-2-yl)carbonyl]amino}-3-(1H-1,2,3-triazol-1-yl)piperidin-1-yl]-1,3-thiazole-5-carboxylate], for which the pIC50 was 7.49.

Consider `CONC(=O)c1cccc2nc(N3CC[C@@H](NC(=O)c4[nH]c(C)c(Cl)c4Cl)[C@@H](n4ccnn4)C3)sc12` [Example 125, 2-[(3S,4R)-4-{[(3,4-Dichloro-5-methyl-1H-pyrrol-2-yl)carbonyl]amino}-3-(1H-1,2,3-triazol-1-yl)piperidin-1-yl]-N-methoxy-1,3-benzothiazole-7-carboxamide], for which the pIC50 was above 8.01.

In the case of `CNC(=O)c1nc(N2CCC(NC(=O)c3[nH]c(C)c(Cl)c3Cl)C3(C2)OCCCO3)sc1C(=O)OC(C)C` (centres unmarked) [Example 8, Isopropyl 2-(11-{[(3,4-dichloro-5-methyl-1H-pyrrol-2-yl)carbonyl]amino}-1,5-dioxa-8-azaspiro[5.5]undec-8-yl)-4-[(methylamino)carbonyl]-1,3-thiazole-5-carboxylate], the pIC50 was 7.13.

For the compound `COCc1cn([C@H]2CN(c3nc(C(=O)NC(COC)COC)c(C(=O)O)s3)CC[C@H]2NC(=O)c2[nH]c(C)c(Cl)c2Cl)nn1` [Example 116], the pIC50 was above 8.01.

Values taken from patent US20100286181A1, “PYRROLE DERIVATIVES WITH ANTIBACTERIAL ACTIVITY” (ASTRAZENECA AB, priority 2006, published 2010).
